From patent US9169252B2 (BRISTOL-MYERS SQUIBB COMPANY, priority 2014, dated 2015)
Where two headings read alike, the source gives them in different places.

What was measured:
[1] = system: TLR2 induced IL-6 in peripheral blood mononuclear cells (PBMCs); experiment: PBMC TLR2 Induced IL-6 Assay; format: cell-based, human; conditions: PBMC TLR2 Induced IL-6 Assay, lipoteichoic acid stimulation, IL-6 by ELISA, read-out: Cell EC50
Procedure, shortened: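 Lipoteichoic acid at 10 µg/ml served as TLR2 stimulus for 5 hours, following a 30-minute compound pretreatment at 37° C. Cells were Ficoll-isolated human PBMCs, 250000 cells/well, cultured in RPMI plus 10% heat-inactivated FCS.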

IRAK4 = IRAK4 (Homo sapiens (Human), UniProt Q9NWZ3); experiment: IRAK4 Inhibition Assay; format: biochemical; conditions: IRAK4 Inhibition Assay; ATP 500 μM; read-out: IRAK4 IC50
Sequence of IRAK4 (Q9NWZ3 whole entry, species assumed): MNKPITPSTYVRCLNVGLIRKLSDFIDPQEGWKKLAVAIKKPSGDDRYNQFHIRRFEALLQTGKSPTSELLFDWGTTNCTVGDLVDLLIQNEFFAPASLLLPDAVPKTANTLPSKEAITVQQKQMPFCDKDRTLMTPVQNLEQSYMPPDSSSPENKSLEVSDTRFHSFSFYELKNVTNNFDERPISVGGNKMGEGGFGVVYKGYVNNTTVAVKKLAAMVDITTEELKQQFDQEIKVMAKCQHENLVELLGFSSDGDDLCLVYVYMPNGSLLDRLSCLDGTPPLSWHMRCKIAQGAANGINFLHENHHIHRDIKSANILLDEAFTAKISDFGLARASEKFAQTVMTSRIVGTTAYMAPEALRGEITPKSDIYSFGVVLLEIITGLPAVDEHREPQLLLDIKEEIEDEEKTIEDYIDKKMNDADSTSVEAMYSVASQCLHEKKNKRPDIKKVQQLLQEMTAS
Procedure, shortened: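 Mobility-shift readout: fluorescent substrate and phosphoproduct resolved electrophoretically on Caliper LabChip 3000 after EDTA quench (35 mM). Enzyme reaction of IRAK4, substrates and test compound ran 60 min at room temperature.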

Row | IC50 (IRAK4) | Compound | EC50 ([1]; Homo sapiens, PBMC) | EC50 [1]
1 | 13.3 nM | CNC(=O)[C@H]1CC[C@H](NC(=O)c2cnc(-n3ccc4cc(C#N)cnc43)cc2NC2CC2)CC1 [Example 85, 6-(5-cyano-1H-pyrrolo[2,3-b]pyridin-1-yl)-4-(cyclopropylamino)-N-((trans)-4-(methylcarbamoyl)cyclohexyl) nicotinamide] | 523 nM | 
2 | 1.9 nM | CC(=O)N[C@H]1CC[C@H](NC(=O)c2cnc(-n3ccc4cc(C#N)cnc43)cc2NC2CC2)CC1 [Example 87, N-((trans)-4-acetamidocyclohexyl)-6-(5-cyano-1H-pyrrolo[2,3-b]pyridin-1-yl)-4-(cyclopropylamino)nicotinamide] | 63 nM | 
3 | 7.1 nM | CC(=O)N[C@H]1CC[C@H](NC(=O)c2cnc(-n3ccc4cc(C#N)cnc43)cc2NC2CCOCC2)CC1 [Example 88, N-((trans)-4-acetamidocyclohexyl)-6-(5-cyano-1H-pyrrolo[2,3-b]pyridin-1-yl)-4-((tetrahydro-2H-pyran-4-yl)amino)nicotinamide] | 345 nM | 
4 | 2 nM | CC(C)Nc1cc(-n2ccc3cc(C#N)cnc32)ncc1C(=O)N[C@H]1CC[C@H](C(=O)NC2CC2)CC1 [Example 91, 6-(5-cyano-1H-pyrrolo[2,3-b]pyridin-1-yl)-N-((trans)-4-(cyclopropylcarbamoyl)cyclohexyl)-4-(isopropylamino)nicotinamide] | 32 nM | 
5 | 4.9 nM | COC(=O)N[C@H]1CC[C@H](NC(=O)c2cnc(-n3ccc4cc(C#N)cnc43)cc2NC(C)C)CC1 [Example 97, methyl((trans)-4-(6-(5-cyano-1H-pyrrolo[2,3-b]pyridin-1-yl)-4-(isopropylamino)nicotinamido)cyclohexyl)carbamate] | 108 nM | 
6 | 3.3 nM | CC(C)Nc1cc(-n2ccc3cc(C#N)cnc32)ncc1C(=O)N[C@H]1CC[C@H](O)CC1 [Example 98, 6-(5-cyano-1H-pyrrolo[2,3-b]pyridin-1-yl)-N-((trans)-4-hydroxycyclohexyl)-4-(isopropylamino)nicotinamide] | 176 nM | 
7 | 3.5 nM | CS(=O)(=O)[C@H]1CC[C@H](NC(=O)c2cnc(-n3ccc4cc(C#N)cnc43)cc2NC2CCOCC2)CC1 [Example 103, 6-(5-Cyano-1H-pyrrolo[2,3-b]pyridin-1-yl)-N-((trans)-4-(methylsulfonyl)cyclohexyl)-4-((tetrahydro-2H-pyran-4-yl)amino)nicotinamide] | 125 nM | 
8 | 1.7 nM | CS(=O)(=O)[C@H]1CC[C@H](NC(=O)c2cnc(-n3ccc4cc(C#N)cnc43)cc2NC2CC2)CC1 [Example 104, 6-(5-Cyano-1H-pyrrolo[2,3-b]pyridin-1-yl)-4-(cyclopropylamino)-N-((trans)-4-(methylsulfonyl)cyclohexyl)nicotinamide] | 67 nM | 

Further lines, the molecule ahead of its results:

Row | Compound | IC50 (IRAK4) | EC50 ([1]; Homo sapiens, PBMC) | EC50 [1]
9 | CNC(=O)[C@H]1CC[C@H](NC(=O)c2cnc(-n3ccc4cc(C#N)cnc43)cc2N[C@@H](C)CO)CC1 [Example 89, 6-(5-cyano-1H-pyrrolo[2,3-b]pyridin-1-yl)-4-(((S)-1-hydroxypropan-2-yl)amino)-N-((1r,4S)-4-(methylcarbamoyl)cyclohexyl)nicotinamide] | 3.3 nM | 90 nM | 
10 | CC(C)Nc1cc(-n2ccc3cc(C#N)cnc32)ncc1C(=O)N[C@H]1CC[C@H](C(=O)NC(C)C)CC1 [Example 90, 6-(5-cyano-1H-pyrrolo[2,3-b]pyridin-1-yl)-4-(isopropylamino)-N-((trans)-4-(isopropylcarbamoyl)cyclohexyl) nicotinamide] | 1.9 nM | 41 nM | 
11 | CCNC(=O)[C@H]1CC[C@H](NC(=O)c2cnc(-n3ccc4cc(C#N)cnc43)cc2NC(C)C)CC1 [Example 92, 6-(5-cyano-1H-pyrrolo[2,3-b]pyridin-1-yl)-N-((trans)-4-(ethylcarbamoyl)cyclohexyl)-4-(isopropylamino)nicotinamide] | 1.7 nM | 79 nM | 
12 | CNC(=O)[C@H]1CC[C@H](NC(=O)c2cnc(-n3ccc4cc(C#N)cnc43)cc2NCC(C)(C)O)CC1 [Example 93, 6-(5-cyano-1H-pyrrolo[2,3-b]pyridin-1-yl)-4-((2-hydroxy-2-methylpropyl)amino)-N-((trans)-4-(methylcarbamoyl)cyclohexyl) nicotinamide] | 8.4 nM |  | 562 nM
13 | CC(C)Nc1cc(-n2ccc3cc(C#N)cnc32)ncc1C(=O)N[C@H]1CC[C@H](C(C)(C)O)CC1 [Example 96, 6-(5-cyano-1H-pyrrolo[2,3-b]pyridin-1-yl)-N-((trans)-4-(2-hydroxypropan-2-yl)cyclohexyl)-4-(isopropylamino)nicotinamide] | 1.4 nM | 38 nM | 
14 | CC(C)Nc1cc(-n2ccc3cc(C#N)cnc32)ncc1C(=O)N[C@H]1CC[C@](C)(O)CC1 [Example 99, 6-(5-cyano-1H-pyrrolo[2,3-b]pyridin-1-yl)-N-((trans)-4-hydroxy-4-methylcyclohexyl)-4-(isopropylamino)nicotinamide] | 4.6 nM | 223 nM | 
15 | CCNc1cc(-n2ccc3cc(C#N)cnc32)ncc1C(=O)N[C@H]1CC[C@H](C(C)(C)O)CC1 [Example 100, 6-(5-cyano-1H-pyrrolo[2,3-b]pyridin-1-yl)-4-(ethylamino)-N-((trans)-4-(2-hydroxypropan-2-yl)cyclohexyl)nicotinamide] | 2.5 nM | 95 nM | 
16 | CS[C@H]1CC[C@H](NC(=O)c2cnc(-n3ccc4cc(C#N)cnc43)cc2NC(C)C)CC1 [Example 101, 6-(5-Cyano-1H-pyrrolo[2,3-b]pyridin-1-yl)-4-(isopropylamino)-N-((trans)-4-(methylthio)cyclohexyl)nicotinamide] | 7.8 nM | 112 nM | 
17 | CC(C)Nc1cc(-n2ccc3cc(C#N)cnc32)ncc1C(=O)N[C@H]1CC[C@H](S(C)(=O)=O)CC1 [Example 102, 6-(5-Cyano-1H-pyrrolo[2,3-b]pyridin-1-yl)-4-(isopropylamino)-N-((trans)-4-(methylsulfonyl)cyclohexyl)nicotinamide] | 3.6 nM | 47 nM | 
18 | CS(=O)(=O)[C@H]1CC[C@H](NC(=O)c2cnc(-n3ccc4cc(C#N)cnc43)cc2Nc2cccc(C(N)=O)c2)CC1 [Example 105, 4-((3-Carbamoylphenyl)amino)-6-(5-cyano-1H-pyrrolo[2,3-b]pyridin-1-yl)-N-((trans)-4-(methylsulfonyl)cyclohexyl)nicotinamide] | 3.9 nM | 437 nM | 
19 | CC(CF)Nc1cc(-n2ccc3cncnc32)ncc1C(=O)NC[C@@H](F)C(C)(C)O (stereo partly drawn) [Example 113, N—((R)-2-Fluoro-3-hydroxy-3-methylbutyl)-4-((1-fluoropropan-2-yl)amino)-6-(7H-pyrrolo[2,3-d]pyrimidin-7-yl)nicotinamide] | 1.9 nM | 222 nM | 
20 | C[C@H](CF)Nc1cc(-n2ccc3cncnc32)ncc1C(=O)NC[C@@H](F)C(C)(C)O [Example 115, N—((R)-2-fluoro-3-hydroxy-3-methylbutyl)-4-(((R)-1-fluoropropan-2-yl)amino)-6-(7H-pyrrolo[2,3-d]pyrimidin-7-yl)nicotinamide] | 3.3 nM | 82 nM | 
21 | C[C@@H](CF)Nc1cc(-n2ccc3cncnc32)ncc1C(=O)NC[C@@H](F)C(C)(C)O [Example 116, N—((R)-2-fluoro-3-hydroxy-3-methylbutyl)-4-(((S)-1-fluoropropan-2-yl)amino)-6-(7H-pyrrolo[2,3-d]pyrimidin-7-yl)nicotinamide] | 6.2 nM | 133 nM | 
22 | C[C@@H](CF)Nc1cc(-n2ccc3cc(C#N)cnc32)ncc1C(=O)NC[C@@H](F)C(C)(C)O [Example 117, 6-(5-cyano-1H-pyrrolo[2,3-b]pyridin-1-yl)-N—((R)-2-fluoro-3-hydroxy-3-methylbutyl)-4-(((S)-1-fluoropropan-2-yl)amino)nicotinamide] | 2.4 nM | 28 nM | 
23 | C[C@H](CF)Nc1cc(-n2ccc3cc(C#N)cnc32)ncc1C(=O)NC[C@@H](F)C(C)(C)O [Example 118, 6-(5-cyano-1H-pyrrolo[2,3-b]pyridin-1-yl)-N—((R)-2-fluoro-3-hydroxy-3-methylbutyl)-4-(((R)-1-fluoropropan-2-yl)amino)nicotinamide] | 1.8 nM | 18 nM | 
24 | C[C@@H](CF)Nc1cc(-n2ccc3cc(C#N)cnc32)ncc1C(=O)NCCC(C)(C)O [Example 119, (S)-6-(5-cyano-1H-pyrrolo[2,3-b]pyridin-1-yl)-4-((1-fluoropropan-2-yl)amino)-N-(3-hydroxy-3-methylbutyl)nicotinamide] | 4.4 nM | 91 nM | 
25 | C[C@H](CF)Nc1cc(-n2ccc3cc(C#N)cnc32)ncc1C(=O)NCCC(C)(C)O [Example 120, (R)-6-(5-cyano-1H-pyrrolo[2,3-b]pyridin-1-yl)-4-((1-fluoropropan-2-yl)amino)-N-(3-hydroxy-3-methylbutyl)nicotinamide] | 5.1 nM | 105 nM | 
26 | C[C@@H](CF)Nc1cc(-n2ncc3cc(C#N)cnc32)ncc1C(=O)NC[C@@H](F)C(C)(C)O [Example 121, 6-(5-cyano-1H-pyrazolo[3,4-b]pyridin-1-yl)-N—((R)-2-fluoro-3-hydroxy-3-methylbutyl)-4-(((S)-1-fluoropropan-2-yl)amino) nicotinamide] | 5.2 nM | 112 nM | 
27 | CNC(=O)[C@H]1CC[C@H](NC(=O)c2cnc(-n3ncc4cc(C#N)cnc43)cc2N[C@@H](C)CF)CC1 [Example 122, 6-(5-cyano-1H-pyrazolo[3,4-b]pyridin-1-yl)-4-(((S)-1-fluoropropan-2-yl)amino)-N-((1r,4S)-4-(methylcarbamoyl)cyclohexyl)nicotinamide] | 16 nM | 501 nM | 
